# In patent US4002623A, “Anti-inflammatory 1-[3-(dialkylamino)propyl]-2-acylaminobenzimidazoles and 2-acylamino-3-[3-(dialkylamino)-propyl]imidazo[4,5-b]pyridines” (Pfizer Inc., priority 1974, dated 1977):
# Assay: adjuvant arthritis screen (Walz et al.), swelling of the non-injected left hind foot on Day 16
# Assay type: in vivo, male inbred Lewis rats
# Details: Rattus norvegicus, 384 h, 10 mg./kg. ip, daily day -1 through day 15, read-out: Activity Percent Inhibition
# From the text: The adjuvant arthritis test described by Walz et al., Ann. Rheum. Dis., 30, 303 (1971) was selected as the method of choice for the determination of the extent of which the novel compounds of the present invention are therapeutically effective as anti-inflammatory agents. Adjuvant arthritis is a crippling deformity in rats resulting from diffuse connective tissue involvement. It is considered by some authorities to be the best available experimental animal model of human rheumatoid arthritis because of its strong clinical and pathological similarities to the human disease and because it can be effectively treated with known anti-arthritic drugs. In this test, lesions resembling those of human rheumatoid arthritis are induced by the injection of complete Freund's adjuvant into one hind leg of a rat. A vigorous inflammatory response occurs in the injected hind leg and reaches its greatest size in about four days. This primary response is followed by the development of a second inflammatory response, appearing about 12-16 days post-injection, that occurs in the uninjected hind leg. While the compounds of the invention are capable of inhibiting the degree of inflammation in both legs, the inhibition of swelling in the uninjected leg at 16 days is considered to be the more meaningful measure of antiarthritic activity.
# The adjuvant arthritis screen as described by Walz et al. (Ann. Rheum. Dis., 30: 303 (1971), was used to evaluate the above prepared compounds.
# The screen is conducted using male inbred Lewis rats weighing approximately 250 gm. The animals are dosed with drug beginning on day- 1 and continuing daily through day 15. On Day 0, the subplanter surface of the right hind paw is injected with 0.1cc of a 1% suspension of Mycobacterium butyricum (Freunds adjuvant) in Primol (Esso). The swelling of the non-injected left hind foot on Day 16, resulting from immune response to adjuvant, was determined for dosed animals and controls. The foot volume is measured by immersing the paw to the anatomical hairline into a mercury reservoir which is connected to a Statham pressure transducer and a recording device. The results are expressed as % inhibition calculated according to the following equation: [formula] The results obtained are as follows for [drawing 22] where Z is --N(CH3)2 and X is carbon: […]
row,SMILES,inhibition in vivo at 10 mg/kg [%]
1,"CN(C)CCCn1c(NC(=O)c2ccc(Cl)cc2)nc2ccccc21 [4-Chlorophenyl; H; H; Z = N(CH3)2, 1-[3-(dimethylamino)propyl]-2-(4-chlorobenzamido)-benzimidazole]",27
2,COc1ccc(C(=O)Nc2nc3ccccc3n2CCCN2CCN(Cc3ccccc3)CC2)cc1 [4-Methoxyphenyl; H; H; drawing 27],32
3,"O=C(Nc1nc2ccccc2n1CCCN1CCN(Cc2ccccc2)CC1)c1ccc(C(F)(F)F)cc1 [4-Trifluoromethylphenyl; H; H; drawing 27, 2-(4-trifluoromethylbenzamido)-1-[3-(4-benzyl-1-piperazinyl)-propyl]benzimidazole]",47
4,"O=C(Nc1nc2ccccc2n1CCCN1CCNCC1)c1ccc(C(F)(F)F)cc1 [4-Trifluoromethylphenyl; H; H; drawing 28, 2-(4-trifluoromethylbenzamido)-1-[3-(1-piperazinyl)propyl]benzimidazole]",28
5,O=C(Nc1nc2ccccc2n1CCCN1CCN(Cc2ccccc2)CC1)c1ccccc1 [Phenyl; H; H; drawing 27],44
6,O=C(Nc1nc2ccccc2n1CCCN1CCNCC1)c1ccccc1 [Phenyl; H; H; drawing 28],19

# Same assay, conditions: Rattus norvegicus, 384 h, 10 mg./kg. po, daily day -1 through day 15, read-out: Activity Percent Inhibition
row,SMILES,inhibition in vivo at 10 mg/kg [%]
1,COc1ccc2c(c1)nc(NC(=O)C=Cc1ccc(Cl)cc1)n2CCCN1CCN(C)CC1 [4-Chlorostyryl; OCH3; H; drawing 24],47
2,"COc1ccc(C(=O)Nc2nc3ccccc3n2CCCN(C)C)cc1 [4-Methoxyphenyl; H; H; Z = N(CH3)2, 1-[3-(dimethylamino)propyl]-2-(4-methyoxybenzamido-)benzimidazole]",12
3,CN1CCN(CCCn2c(NC(=O)c3ccc(C(F)(F)F)cc3)nc3cc(C(F)(F)F)ccc32)CC1 [4-Trifluoromethylphenyl; CF3; H; drawing 24],28
4,"CN1CCN(CCCn2c(NC(=O)c3ccc(C(F)(F)F)cc3)nc3cc(Cl)ccc32)CC1 [4-Trifluoromethylphenyl; Cl; H; drawing 24, 1-[3-(4-methyl-1-piperazinyl)propyl]-2-(4-trifluoromethylbenzamido)-5-chlorobenzimidazole]",38

# Same assay, conditions: Rattus norvegicus, 384 h, 20 mg./kg. po, daily day -1 through day 15, read-out: Activity Percent Inhibition
row,SMILES,inhibition in vivo at 20 mg/kg [%]
1,CN1CCN(CCCn2c(NC(=O)c3ccc(Cl)cc3)nc3cccnc32)CC1 [4-Chlorophenyl; H; H; drawing 25],26
2,CN1CCN(CCCn2c(NC(=O)c3ccc(Cl)cc3)nc3cc(S(=O)(=O)N(C)C)ccc32)CC1 [4-Chlorophenyl; SO2 N(CH3)2; H; drawing 24],18
3,CN1CCN(CCCn2c(NC(=O)C=Cc3ccc(Cl)cc3)nc3cc(C(F)(F)F)ccc32)CC1 [4-Chlorostyryl; CF3; H; drawing 24],6
4,"Cc1ccc2c(c1)nc(NC(=O)C=Cc1ccc(Cl)cc1)n2CCCN1CCN(C)CC1 [4-Chlorostyryl; CH3; H; drawing 24, 1-[3-(4-methyl-1-piperazinyl)propyl]-2-(p-chlorocinnamido)-5-methylbenzimidazole]",39
5,COc1ccc(C(=O)Nc2nc3ccc(C)cc3n2CCCN2CCN(C)CC2)cc1 [4-Methoxyphenyl; H; CH3; drawing 24],22
6,COc1ccc(C(=O)Nc2nc3cccnc3n2CCCN2CCN(C)CC2)cc1 [4-Methoxyphenyl; H; H; drawing 25],5
7,COc1ccc(C(=O)Nc2nc3cc(S(=O)(=O)N(C)C)ccc3n2CCCN2CCN(C)CC2)cc1 [4-Methoxyphenyl; SO2 N(CH3)2; H; drawing 24],27
8,Cc1ccc2c(c1)nc(NC(=O)c1ccc(C(F)(F)F)cc1)n2CCCN1CCN(C)CC1 [4-Trifluoromethylphenyl; CH3; H; drawing 24],35
9,Cc1ccc2nc(NC(=O)c3ccc(C(F)(F)F)cc3)n(CCCN3CCN(C)CC3)c2c1 [4-Trifluoromethylphenyl; H; CH3; drawing 24],50
10,CN1CCN(CCCn2c(NC(=O)c3ccc(C(F)(F)F)cc3)nc3ccccc32)CC1 [4-Trifluoromethylphenyl; H; H; drawing 24],51
11,CN1CCN(CCCn2c(NC(=O)c3ccc(C(F)(F)F)cc3)nc3cccnc32)CC1 [4-Trifluoromethylphenyl; H; H; drawing 25],14
12,CCCCCCCCCC(=O)Nc1nc2ccccc2n1CCCN1CCN(C)CC1 [CH3 (CH2)8; H; H; drawing 24],45
13,"Cc1cc2nc(NC(=O)c3ccccc3)n(CCCN3CCN(C)CC3)c2cc1C [Phenyl; CH3; CH3; drawing 24, 1-[3-(4-methyl-1-piperazinyl)propyl]-2-benzamido-5,6-dimethylbenzimidazole]",31
14,Cc1ccc2nc(NC(=O)c3ccccc3)n(CCCN3CCN(C)CC3)c2c1 [Phenyl; H; CH3; drawing 24],23

# Same assay, conditions: Rattus norvegicus, 384 h, 33 mg./kg. ip, daily day -1 through day 15, read-out: Activity Percent Inhibition
row,SMILES,inhibition in vivo at 33 mg/kg [%]
1,"CN(C)CCCn1c(NC(=O)c2ccc(Cl)cc2)nc2ccccc21 [4-Chlorophenyl; H; H; Z = N(CH3)2, 1-[3-(dimethylamino)propyl]-2-(4-chlorobenzamido)-benzimidazole]",51
2,O=C(Nc1nc2ccccc2n1CCCN1CCOCC1)c1ccc(Cl)cc1 [4-Chlorophenyl; H; H; drawing 23],15
3,CN1CCN(CCCn2c(NC(=O)c3ccc(Cl)cc3)nc3ccccc32)CC1 [4-Chlorophenyl; H; H; drawing 24],43
4,O=C(Nc1nc2ccccc2n1CCCN1CCCCC1)c1ccc(Cl)cc1 [4-Chlorophenyl; H; H; drawing 26],46
5,CN1CCN(CCCn2c(NC(=O)C=Cc3ccc(Cl)cc3)nc3cc(Cl)ccc32)CC1 [4-Chlorostyryl; Cl; H; drawing 24],66
6,CN(C)CCCn1c(NC(=O)C=Cc2ccc(Cl)cc2)nc2ccccc21 [4-Chlorostyryl; H; H; Z = N(CH3)2],33
7,COc1ccc(C(=O)Nc2nc3cc(Cl)ccc3n2CCCN2CCN(C)CC2)cc1 [4-Methoxyphenyl; Cl; H; drawing 24],46
8,"COc1ccc(C(=O)Nc2nc3ccccc3n2CCCN(C)C)cc1 [4-Methoxyphenyl; H; H; Z = N(CH3)2, 1-[3-(dimethylamino)propyl]-2-(4-methyoxybenzamido-)benzimidazole]",59
9,COc1ccc(C(=O)Nc2nc3ccccc3n2CCCN2CCOCC2)cc1 [4-Methoxyphenyl; H; H; drawing 23],54
10,COc1ccc(C(=O)Nc2nc3ccccc3n2CCCN2CCN(C)CC2)cc1 [4-Methoxyphenyl; H; H; drawing 24],27
11,CN1CCN(CCCn2c(NC(=O)c3ccc(C(F)(F)F)cc3)nc3cc(C(F)(F)F)ccc32)CC1 [4-Trifluoromethylphenyl; CF3; H; drawing 24],71
12,"CN1CCN(CCCn2c(NC(=O)c3ccc(C(F)(F)F)cc3)nc3cc(Cl)ccc32)CC1 [4-Trifluoromethylphenyl; Cl; H; drawing 24, 1-[3-(4-methyl-1-piperazinyl)propyl]-2-(4-trifluoromethylbenzamido)-5-chlorobenzimidazole]",72
13,O=C(Nc1nc2ccccc2n1CCCN1CCOCC1)c1ccc(C(F)(F)F)cc1 [4-Trifluoromethylphenyl; H; H; drawing 23],35
14,CN1CCN(CCCn2c(NC(=O)c3ccc(C(F)(F)F)cc3)nc3ccccc32)CC1 [4-Trifluoromethylphenyl; H; H; drawing 24],77
15,"O=C(Nc1nc2ccccc2n1CCCN1CCCCC1)c1ccc(C(F)(F)F)cc1 [4-Trifluoromethylphenyl; H; H; drawing 26, 1-[3-(1-piperidinyl)propyl]-2-(4-trifluoromethylbenzamido)benzimidazole]",79
16,COc1ccc2c(c1)nc(NC(=O)c1ccc(C(F)(F)F)cc1)n2CCCN1CCN(C)CC1 [4-Trifluoromethylphenyl; OCH3; H; drawing 24],69
17,CN1CCN(CCCn2c(NC(=O)c3ccc(C(C)(C)C)cc3)nc3ccccc32)CC1 [4-t-Butylphenyl; H; H; drawing 24],26
18,CC(C)(C)CC(=O)Nc1nc2ccccc2n1CCCN1CCOCC1 [(CH3)3 CCH2; H; H; drawing 23],13
19,COCC(=O)Nc1nc2ccccc2n1CCCN(C)C [CH3 OCH2; H; H; Z = N(CH3)2],32
20,COCC(=O)Nc1nc2ccccc2n1CCCN1CCOCC1 [CH3 OCH2; H; H; drawing 23],21
21,CN1CCN(CCCn2c(NC(=O)C3CCC3)nc3ccccc32)CC1 [Cyclobutyl; H; H; drawing 24],34
22,O=C(Nc1nc2ccccc2n1CCCN1CCCCC1)c1ccco1 [Furyl; H; H; drawing 26],12
23,CN1CCN(CCCn2c(NC(=O)c3ccccc3)nc3cc(C(F)(F)F)ccc32)CC1 [Phenyl; CF3; H; drawing 24],29
24,CN1CCN(CCCn2c(NC(=O)c3ccccc3)nc3cc(Cl)ccc32)CC1 [Phenyl; Cl; H; drawing 24],41
25,CN(C)CCCn1c(NC(=O)c2ccccc2)nc2ccccc21 [Phenyl; H; H; Z = N(CH3)2],8
26,O=C(Nc1nc2ccccc2n1CCCN1CCOCC1)c1ccccc1 [Phenyl; H; H; drawing 23],15
27,COc1ccc2c(c1)nc(NC(=O)c1ccccc1)n2CCCN1CCN(C)CC1 [Phenyl; OCH3; H; drawing 24],27
